Experimental data reported in US10035814B2, “Guanine analogs as telomerase substrates and telomere length affectors” (Geron Corporation, priority 2011, dated 2018).
Several values for one entry are separate records, joined by “and”; a condition that tells them apart may be missing. Equal values may be shown once.

Key:
telomerase = telomerase (Homo sapiens (Human), UniProt O14746); assay: Primer extension assay for telomerase activity; format: biochemical; details: for EC50: read-out: Primer Ext. Assay EC50
telomerase, sequence (O14746 whole entry): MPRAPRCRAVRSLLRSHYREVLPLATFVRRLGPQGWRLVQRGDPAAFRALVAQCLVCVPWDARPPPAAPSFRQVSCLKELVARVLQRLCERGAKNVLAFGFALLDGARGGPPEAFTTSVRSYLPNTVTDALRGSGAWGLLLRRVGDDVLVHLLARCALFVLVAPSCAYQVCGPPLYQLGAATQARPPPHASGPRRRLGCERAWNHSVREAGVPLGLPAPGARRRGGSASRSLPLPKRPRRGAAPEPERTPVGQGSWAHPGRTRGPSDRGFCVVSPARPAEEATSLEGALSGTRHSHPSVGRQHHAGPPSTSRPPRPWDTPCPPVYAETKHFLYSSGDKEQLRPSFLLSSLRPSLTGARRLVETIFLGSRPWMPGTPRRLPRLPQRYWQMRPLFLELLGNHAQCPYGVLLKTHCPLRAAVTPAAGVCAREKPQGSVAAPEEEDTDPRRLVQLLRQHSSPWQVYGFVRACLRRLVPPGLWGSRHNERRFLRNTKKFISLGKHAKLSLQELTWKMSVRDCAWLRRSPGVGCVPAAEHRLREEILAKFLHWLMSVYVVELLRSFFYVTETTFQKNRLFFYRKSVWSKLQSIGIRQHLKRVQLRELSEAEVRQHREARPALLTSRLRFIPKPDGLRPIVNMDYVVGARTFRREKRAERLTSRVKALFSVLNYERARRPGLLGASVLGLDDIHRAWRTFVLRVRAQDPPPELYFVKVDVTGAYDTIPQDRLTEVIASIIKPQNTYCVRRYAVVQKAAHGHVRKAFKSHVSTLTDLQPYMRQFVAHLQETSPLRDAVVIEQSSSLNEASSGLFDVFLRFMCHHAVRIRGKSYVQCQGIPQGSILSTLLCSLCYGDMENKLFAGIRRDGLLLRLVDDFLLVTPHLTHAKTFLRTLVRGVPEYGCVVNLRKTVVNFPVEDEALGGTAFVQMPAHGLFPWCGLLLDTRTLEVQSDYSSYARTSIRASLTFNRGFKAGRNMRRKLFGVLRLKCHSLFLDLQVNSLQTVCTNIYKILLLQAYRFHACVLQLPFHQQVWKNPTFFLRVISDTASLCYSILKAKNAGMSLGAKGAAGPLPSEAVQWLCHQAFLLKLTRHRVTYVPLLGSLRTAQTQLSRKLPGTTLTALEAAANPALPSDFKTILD
Procedure: Purified human telomerase was incubated with d(TTAGGG)3 (SEQ ID NO: 1) and deoxy-nucleoside triphosphates for 90 minutes at 37° C. All reactions were done in the presence of 200 dTTP and 10 μM dATP (50,000 cpm/pmol a-^33P-dATP). Activity was determined by incubating affinity purified telomerase extract with 1 μM primer [d(TTAGGG)3] (SEQ ID NO: 1), 200 μM dTTP, 50 μM dGTP, 10 μM dATP, 10 μCi [α-^33P]dATP (2000-4000 Ci/mmol) in a buffer containing 50 mM (N-2-hydroxyethyl piperazine-N′-3 propanesulfonic acid)-NaOH pH 8.5, 1 mM MgCl2, 1 mM DTT, 5% glycerol, 0.5 mM EGTA and 100 mM KOAc in a final reaction volume of 40 μl. Primer extension products were analyzed on a 15% polyacrylamide gel containing 7 M urea. A characteristic telomerase ladder has multiple bands. If a compound is not a substrate then (TTAGGG)3TTA (21 nt) (SEQ ID NO: 2). If a compound is a chain terminator then (TTAGGG)3TTAG* (22 nt) (SEQ ID NO: 3).
Purified human telomerase was incubated with d(TTAGGG)3 (SEQ ID NO: 1) and deoxy-nucleoside triphosphates for 90 minutes at 37° C. All reactions were done in the presence of 200 dTTP and 10 μM dATP (50,000 cpm/pmol a-^33P-dATP). Activity was determined by incubating affinity purified telomerase extract with […] primer [d(TTAGGG)3] (SEQ ID NO: 1), […] [α-^33P]dATP (2000-4000 Ci/mmol) in a buffer containing 50 mM (N-2-hydroxyethyl piperazine-N′-3 propanesulfonic acid)-NaOH pH 8.5, 1 mM MgCl2, 1 mM DTT, 5% glycerol, 0.5 mM EGTA and 100 mM KOAc in a final reaction volume of 40 μl. Primer extension products were analyzed on a 15% polyacrylamide gel containing 7 M urea. A characteristic telomerase ladder has multiple bands. If a compound is not a substrate then (TTAGGG)3TTA (21 nt) (SEQ ID NO: 2). If a compound is a chain terminator then (TTAGGG)3TTAG* (22 nt) (SEQ ID NO: 3).

telomerase in HT3 cells = telomerase in HT3 cells (Homo sapiens (Human), UniProt O14746); assay: Ex vivo TRAP assay in HT3 cells; format: cell-based; details: HT3 cells; for EC50: 3 days, read-out: ExVivo TRAP EC50 (μM)- 3 Day Assay
telomerase in HT3 cells, sequence (O14746 whole entry): as above
telomerase in HT3 cells, sequence (O60832 whole entry partner): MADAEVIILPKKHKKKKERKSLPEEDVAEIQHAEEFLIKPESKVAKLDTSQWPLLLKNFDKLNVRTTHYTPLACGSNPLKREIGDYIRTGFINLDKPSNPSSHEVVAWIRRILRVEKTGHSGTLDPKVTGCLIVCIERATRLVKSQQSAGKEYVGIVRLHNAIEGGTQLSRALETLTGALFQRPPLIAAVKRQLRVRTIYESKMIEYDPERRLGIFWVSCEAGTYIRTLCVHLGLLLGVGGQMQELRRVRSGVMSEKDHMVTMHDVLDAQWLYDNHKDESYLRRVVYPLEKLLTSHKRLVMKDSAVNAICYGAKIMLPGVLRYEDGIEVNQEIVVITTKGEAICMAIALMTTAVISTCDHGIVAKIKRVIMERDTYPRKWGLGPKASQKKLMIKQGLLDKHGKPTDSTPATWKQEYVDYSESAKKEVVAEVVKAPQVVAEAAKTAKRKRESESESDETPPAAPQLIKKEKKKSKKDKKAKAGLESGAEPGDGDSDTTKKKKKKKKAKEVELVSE
telomerase in HT3 cells, sequence (Q9NX24 whole entry partner): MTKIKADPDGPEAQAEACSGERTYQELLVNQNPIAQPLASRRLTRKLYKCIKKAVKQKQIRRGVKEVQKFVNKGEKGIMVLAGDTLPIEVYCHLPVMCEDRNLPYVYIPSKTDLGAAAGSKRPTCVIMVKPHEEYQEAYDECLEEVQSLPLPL
telomerase in HT3 cells, sequence (Q9NPE3 whole entry partner): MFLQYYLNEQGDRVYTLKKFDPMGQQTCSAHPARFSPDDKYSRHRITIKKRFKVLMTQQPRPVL
telomerase in HT3 cells, sequence (Q9NY12 whole entry partner): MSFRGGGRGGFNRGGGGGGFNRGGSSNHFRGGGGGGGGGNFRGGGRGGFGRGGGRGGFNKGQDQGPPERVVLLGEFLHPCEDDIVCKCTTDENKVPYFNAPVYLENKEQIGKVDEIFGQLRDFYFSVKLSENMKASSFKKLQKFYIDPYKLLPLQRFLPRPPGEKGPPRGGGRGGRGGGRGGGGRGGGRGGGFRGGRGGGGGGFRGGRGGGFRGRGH
telomerase in HT3 cells, sequence (Q9BUR4 whole entry partner): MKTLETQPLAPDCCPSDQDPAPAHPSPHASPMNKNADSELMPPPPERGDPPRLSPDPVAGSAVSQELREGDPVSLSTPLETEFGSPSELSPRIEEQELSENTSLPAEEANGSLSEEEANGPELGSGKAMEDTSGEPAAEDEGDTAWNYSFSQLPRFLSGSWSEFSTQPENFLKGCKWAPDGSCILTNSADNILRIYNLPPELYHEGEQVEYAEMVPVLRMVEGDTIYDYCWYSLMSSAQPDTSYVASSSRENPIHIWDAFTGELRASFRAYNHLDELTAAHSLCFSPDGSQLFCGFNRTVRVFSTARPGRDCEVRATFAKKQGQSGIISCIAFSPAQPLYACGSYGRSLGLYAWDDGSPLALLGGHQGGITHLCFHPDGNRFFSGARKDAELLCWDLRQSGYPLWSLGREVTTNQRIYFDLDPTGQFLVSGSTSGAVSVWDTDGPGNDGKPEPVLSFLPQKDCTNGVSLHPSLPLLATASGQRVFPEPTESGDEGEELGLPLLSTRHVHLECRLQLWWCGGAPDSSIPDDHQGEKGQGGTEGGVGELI
Procedure: HT3 cells were treated for three days with increasing concentrations of PMPG-diisopropyloxy ester ranging from 0.2 μM to 20 μM. Cells (HT3 RPMI+10% PBS) were incubated with compound for 24 hr after which PSTS primer (phosphorothioate-d(AATCCGTCGAGCAGAGTT (SEQ ID NO: 6) containing a 5′ Cy-5 label) (7.5 μM) and fresh compound are added for an additional 24 hr. Cells were lysed and endogenous telomerase inactivated by heating (15 min, 75° C.). Products were amplified by 30 cycles of PCR under TRAP conditions set forth above and quantified. The results of two independent experiments are shown in Table 4.
HT3 cells were treated for three days with increasing concentrations of one or more of the indicated compounds ranging from 0.2 μM to 20 μM. Cells (HT3 RPMI+10% FBS) were incubated with compound for 24 hours, after which PSTS primer (phosphorothioate-d AATCCGTCGAGCAGAGTT (SEQ ID NO: 6) containing a 5′ Cy-5 label) (7.5 μM) and fresh compound were added for an additional 24 hours. Cells were lysed and endogenous telomerase inactivated by heating (15 minutes, 75° C.). Products were amplified by 30 cycles of PCR under TRAP conditions set forth in Kim et al., Science 266:2011, […] (which reference is incorporated herein in its entirety) and quantified.

Compound | Primer Ext. Assay Notes: telomerase substrate / chain terminator (telomerase) | EC50 (telomerase) | EC50 (telomerase in HT3 cells) | further results
C=C(COCP(=O)(O)OP(=O)(O)OP(=O)(O)O)Cn1cnc2c(=O)[nH]c(N)nc21 [Compound 142810] | Chain Terminator. | 1.4 µM |  | 
CC(Cn1cnc2c(=O)[nH]c(N)nc21)OCP(=O)(O)OP(=O)(O)OP(=O)(O)O (single isomer, unassigned) [Compound 142692] | Chain terminator. | 0.5 to 1.2 µM |  | 
CC(Cn1cnc2c(=O)[nH]c(N)nc21)OCP(=O)(O)NCCCNCCCCN (stereo not drawn) [compound 142812] |  |  | 5 µM | 
C=C(COCP(=O)(O)O)Cn1cnc2c(=O)[nH]c(N)nc21 [compound 142811] |  |  | 2.6 µM | 
Nc1nc2c(ncn2CC(OCP(=O)(O)OP(=O)(O)OP(=O)(O)O)C(F)(F)F)c(=O)[nH]1 (stereo not drawn) [Compound 142850] | Weak chain terminator. |  |  | 
CC(Cn1cnc2c(=S)[nH]c(N)nc21)OCP(=O)(O)O (stereo not drawn) [compound 142694] |  |  | 7.54 µM | 
CC(Cn1cnc2c(=S)[nH]c(N)nc21)OCP(=O)(O)OP(=O)(O)OP(=O)(O)O (stereo not drawn) [Compound 142761] | Chain terminator | 13.5 µM |  | 
Nc1nc2c(ncn2CC(CF)OCP(=O)(O)OP(=O)(O)OP(=O)(O)O)c(=O)[nH]1 (stereo not drawn) [Compound 142856] | Chain terminator. | 7.5 µM |  | 
CC[C@H](Cn1cnc2c(=O)[nH]c(N)nc21)OCP(=O)(O)OP(=O)(O)OP(=O)(O)O [Compound 142916] |  | 10 µM |  | 
C[C@H](CCn1cnc2c(=O)[nH]c(N)nc21)OCP(=O)(O)OP(=O)(O)OP(=O)(O)O [Compound 142915] |  | > 60 µM |  | 
C=C(COCP(=O)(O)NCCCNCCCCN)Cn1cnc2c(=O)[nH]c(N)nc21 [compound 142873] |  |  | 6.7 µM | 
Nc1nc2c(ncn2CCCOCP(=O)(O)OP(=O)(O)OP(=O)(O)O)c(=O)[nH]1 [Compound 142848] | Chain terminator | 1.5 µM |  | potency relative to PMPG (R-PMPGpp), times less potent (telomerase): ~2
CC(Cn1cnc2c(=O)[nH]c(N)nc21)OCP(=O)(O)O (single isomer, unassigned) [compound 142693] |  |  | 11.7 µM | 
CC(C)(Cn1cnc2c(=O)[nH]c(N)nc21)OCP(=O)(O)OP(=O)(O)OP(=O)(O)O [Compound 142891] | Weak chain terminator. |  |  | 
CCCCCCCCCCNP(=O)(O)COC(C)Cn1cnc2c(=O)[nH]c(N)nc21 (stereo not drawn) [compound 142962] |  |  | 1.44 µM | 
C[C@H](Cn1cnc2c(=O)[nH]c(N)nc21)SCP(=O)(O)OP(=O)(O)OP(=O)(O)O [Compound 142823] | Weak chain terminator. |  |  | 
CC(COCP(=O)(O)OP(=O)(O)OP(=O)(O)O)Cn1cnc2c(=O)[nH]c(N)nc21 (stereo not drawn) [Compound 142846] | Chain terminator. | 4.4 µM |  | 
CC(C)OC(=O)OCOP(=O)(COC(C)Cn1cnc2c(=O)[nH]c(N)nc21)OCOC(=O)OC(C)C (single isomer, unassigned) [ID#142748, PMPG prodrug, S form] |  |  |  | IC50 (telomerase in HT3 cells; 0.2 μM to 20 μM, two independent experiments, read-out: Ex vivo Assay IC 50): > 20 µM
CC(Cn1cnc2c(=O)[nH]c(N)nc21)OCP(=O)(O)OP(=O)(O)OP(=O)(O)O (stereo not drawn) [Compound 142751] | Weak chain terminator. |  |  | 
CC(C)OC(=O)OCOP(=O)(COC(C)Cn1cnc2c(=O)[nH]c(N)nc21)OCOC(=O)OC(C)C (single isomer, unassigned) [compound 142715] |  |  | 1.2 µM and 3.1 µM | 
C=C(COCP(=O)(O)OP(=O)(O)OP(=O)(O)O)Cn1cnc2c(=O)[nH]c(N)nc21 [ID#142810, PMIBeG, free acid] |  |  |  | potency relative to PMPG (R-PMPGpp), times less potent (telomerase): approximately two times less potent than R-PMPGpp
CC(Cn1cnc2c(=S)[nH]c(N)nc21)OCP(=O)(O)OP(=O)(O)OP(=O)(O)O (stereo not drawn) [Compound 142752] | Weak chain terminator. |  |  | 
CC(Cn1cnc2c(=O)[nH]c(N)nc21)OCP(=O)(O)NCCCNCCCCNCCCNP(=O)(O)COC(C)Cn1cnc2c(=O)[nH]c(N)nc21 (stereo not drawn) [compound 142942] |  |  | 1.84 µM | 
C[C@@H](COCP(=O)(O)OP(=O)(O)OP(=O)(O)O)Cn1cnc2c(=O)[nH]c(N)nc21 (stereo in doubt) [Compound 142860] | Weak chain terminator. |  |  | 
CC(COCP(=O)(O)OP(=O)(O)OP(=O)(O)O)n1cnc2c(=O)[nH]c(N)nc21 (stereo not drawn) [Compound 142879] | Chain terminator. | 3.1 µM |  | 
